Test results as given in US4535081A, “Antiallergic and antiulcer 1-oxo-1H-thiazolo[3,2-a]pyrimidine-2-carboxamides and intermediates therefor” (Pfizer Inc., priority 1983, dated 1985).
Values joined by “and” are separate entries in the source; they are usually repeats but may differ in a detail not shown here. Identical values can stand only once.

Key:
[1] = test system: IgE (reaginic antiserum) PCA reaction; test: Oral activity in PCA test, IgE; format: in vivo, rat
Experimental: The antiallergy property of the compounds of this invention is evaluated by the passive cutaneous anaphylaxis (PCA) test (Ovary, J. Immun., 81, 355, 1958). In the PCA test, normal animals are injected intradermally (i.d.) with antibodies contained in serum obtained from actively sensitized animals. The animals are then challenged intravenously with antigen mixed with a dye such as Evans' Blue. The increased capillary permeability caused by the antigen-antibody reaction causes the dye to leak from the site of the antibody injection. The test animals are then asphyxiated and the intensity of the reaction determined by measuring the diameter and intensity of the blue coloration on the inner surface of the animals' skin.
The PCA test is a measure of the anti-allergic (especially anti-asthmatic) activity of a compound. Compounds which inhibit a positive PCA test induced by the rat immunochemical counterpart of human immunoglobulin E (IgE), or reagin, are considered to have anti-allergic activity (C. Mota, Ann. N.Y. Acad. Sci., 103, 264 1963). (Reagin is primarily immunoglobulin E [IgE] and is the principal immunoglobulin responsible for allergic asthma, anaphylaxis, hay fever, food sensitivities and certain manifestations of drug sensitivities, although recent evidence ascribes to the IgG class of antibodies a significant role in the mediation of allergic diseases). Such compounds when administered to a sensitized subject, human or animal, prior to the time when the subject comes into contact with antigens or substances to which it is allergic, will prevent the allergic reaction which would otherwise occur. They, therefore, provide a method for the prophylactic treatment of allergy or anaphylactic reactions of a reagin mediated nature.
To put it another way, such compounds block the release of mediators resulting from the antigen-antibody (allergic) reaction as illustrated in the PCA test using rat homocytotropic antibody--a known correlate of human reaginic antibody. Inhibition of reaginic antigen-antibody reactions in rats, the test animal of the PCA test, is regarded as representative of inhibition of human reaginic antigen-antibody reactions which occur during allergic episodes.
The ability of agents to interfere with PCA reactions is measured in male Charles River Wistar rats, 170-210 g. Reaginic antiserum, rich in IgE antibodies, is prepared according to Petillo et al., Int. Arch. Allergy, 44, 309 (1973). Hyperimmune antiserum rich in IgG antibodies to hen egg albumin is prepared according to Orange et al., J. Exptl. Med., 127, 767 (1968). Forty-eight hours prior to antigen challenge, the reaginic antiserum is injected intradermally (i.d.) into the shaved skin of a normal rat's back; 5 hours before challenge the hyperimmune antisera is similarly injected. At a third site 60 mcg. histamine dihydrochloride and 0.5 mcg. serotonin creatinine sulfate are injected i.d. just prior to antigen challenge as a check for antihistaminic, antiserotonin and unspecific types of blockage; the compounds of the instant invention or saline are then administered i.v. and immediately followed by the challenge of 5 mg. egg albumen and 2.5 mg. Evans' Blue dye in saline. In the case of oral administration Evans' Blue dye and egg albumin are given 5 minutes after administration of the drug. Thirty minutes later the animals are asphyxiated using chloroform and the skin of the back removed and reversed for observation. A score is assigned each injection site equal to the product of the diameter of the site in mm. and a grade of 0.1, 0.5, 1, 2, 3 or 4 proportional to intensity of dye coloration. The scores for a given injection site are summed for each group of five animals and compared to the saline treated controls. The difference is expressed as percent blockage due to the compound employed. […]

[2] = test system: isolated guinea pig ileum (acetylcholine); test: Isolated ileum spasm, acetylcholine; details: 10^-8 to 10^-4 M
[3] = test system: isolated guinea pig ileum (histamine); test: Isolated ileum spasm, histamine; details: 10^-8 to 10^-4 M
[4] = test system: isolated rat monocytes; test: Synthesis and release of SRC in isolated monocytes stimulated by an ionophore; format: cell-based
[5] = test system: ethanol-induced ulcer; test: Ethanol-induced rat ulcer assay; format: in vivo; details: oral, 5 mg./kg.; Table III; listed as Formula I: (CH2)4
Experimental: Alternatively, the effectiveness of the products of this invention as antiulcer agents is determined in an ethanol-induced rat ulcer assay. In this test, overnight fasted male rats are given drug (5 mg./kg.) or water orally fifteen minutes prior to an orally administered dose of absolute ethanol (1.0 ml.). One hour after the ethanol challenge the animals (8/group) are killed and the stomachs examined for the presence of lesions. All drugs were dissolved in dilute NaOH. After sacrifice the abdomen is opened and a locking hemostat placed at the pylorus. 6 ml. of a 4% solution of formaldehyde was injected into the stomach with a gastric feeding tube and a second locking hemostat was used to seal the esophagus. The stomach was removed, opened along the greater curvature and examined for ulceration.
The scoring system used to quantitate the ethanol-induced lesions is given below.
For each group of animals an ulcer index is calculated as follows:
Ulceration Index=(the sum of the scores of the group)×(the sum of the number of ulcers in the group)×(the fraction of the group having any incidence of ulceration).
The percentage inhibition of ulcers is calculated as follows:
% Inhibition=100×[(ulcer index controls)-(ulcer index drug-treated)].div.(ulcer index controls).

[6] = test system: urinary volume output and sodium and potassium excretion; test: Diuretic activity; format: in vivo; details: oral
Experimental: When given orally, it caused a dose-related increase in urinary volume output at doses in the range 0.3 to 5 mg/kg. […] These findings indicate that the dose-response range for diuretic activity is considerably higher than that for antiulcer effects and just below that for antiallergy effects (1 to 10 mg/kg).

[7] = Cardiovascular effects in anesthetized dogs; format: in vivo, dog; details: dog, in vivo; cumulative intravenous doses; read-out: ratio of cardiovascular-effect dose to maximally effective intravenous antiallergy dose
[8] = test system: blood pressure, heart rate and pressor responses; test: Cardiovascular effects in anesthetized dogs; format: in vivo, dog; details: cumulative 5 and 15 mg/kg, i.v.
[9] = test system: serum enzyme levels; test: Serum enzyme levels, intravenous five days, dogs; format: in vivo, dog; details: five days, 1, 3, 10, 3 and 3 mg/kg
[10] = test system: rats; test: Oral toleration, 10 days, rats; format: in vivo, rat; details: 10 days, 50, 150 and 300 mg/kg/day
Experimental: Rats were given III orally by gavage at doses of 50, 150 and 300 mg/kg/day for 10 days.

[11] = test system: bone marrow; test: Bone marrow chromosomal damage, mice; format: in vivo, mouse; details: single oral 40 mg/kg; 6, 12 or 24 hours
Experimental: Single oral doses of III, 40 mg/kg, were administered to groups of mice who were sacrificed 6, 12 or 24 hours later. […] From these findings, it is evident that III has no obvious mutagenic potential.

O=C(Nc1nnn[nH]1)c1cnc2sc3c(n2c1=O)CCCC3 [Compound III, N-(5-Tetrazolyl)-1-oxo-1H-cyclohexenothiazolo[3,2-a]pyrimidine-2-carboxamide]
inhibition in vivo at 3 mg/kg ([1]; Rattus norvegicus, IgE, oral, 3 mg./kg., read-out: Oral Activity (% of Protection) in the PCA Test, IgE): 47%
oral activity ([1]; oral): excellent oral activity
dose range for antiallergy effects ([1]; rat, in vivo): 1 to 10 mg/kg
antagonism of spasm of isolated guinea pig ileum [2]: does not antagonize spasms
antagonism of spasm of isolated guinea pig ileum [3]: does not antagonize spasms
synthesis and release of SRC [4]: is not inhibited
% Inhibition in the Ethanol-Induced Rat Ulcer Assay, amides [5]: 97% and 81%
dose range of dose-related increase in urinary volume output [6]: 0.3 to 5 mg/kg
maximum increase in urinary volume output ([6]; 0.3 to 5 mg/kg): twofold increase in volume output
sodium and potassium excretion ([6]; 0.3 to 5 mg/kg): an increase in sodium and potassium excretion was observed
urinary concentrations of sodium and potassium ions ([6]; 0.3 to 5 mg/kg): unchanged
selectivity ratio [7]: 5 to 15
blood pressure [8]: transient hypotension
heart rate [8]: variable changes in heart rate
pressor responses to epinephrine and bilateral carotid occlusion [8]: diminished slightly
serum enzyme levels [9]: remained normal
pathological changes, gross and microscopic (liver, kidney, heart, lung) ([10]; oral gavage): no resultant pathological changes
clinical chemistry apart from serum glutamic-pyruvic transaminase ([10]; oral): no changes in clinical chemistry were observed
chromosomal damage in bone marrow, single dose [11]: did not reveal any chromosomal damage
